Where a name gives a salt, the structure may show the parent alone.
Tests used:
[1] = biological target: T1, 5-hydroxytryptamine receptor 2C (Rattus norvegicus, UniProt P08909)
T1 sequence (P08909 whole entry): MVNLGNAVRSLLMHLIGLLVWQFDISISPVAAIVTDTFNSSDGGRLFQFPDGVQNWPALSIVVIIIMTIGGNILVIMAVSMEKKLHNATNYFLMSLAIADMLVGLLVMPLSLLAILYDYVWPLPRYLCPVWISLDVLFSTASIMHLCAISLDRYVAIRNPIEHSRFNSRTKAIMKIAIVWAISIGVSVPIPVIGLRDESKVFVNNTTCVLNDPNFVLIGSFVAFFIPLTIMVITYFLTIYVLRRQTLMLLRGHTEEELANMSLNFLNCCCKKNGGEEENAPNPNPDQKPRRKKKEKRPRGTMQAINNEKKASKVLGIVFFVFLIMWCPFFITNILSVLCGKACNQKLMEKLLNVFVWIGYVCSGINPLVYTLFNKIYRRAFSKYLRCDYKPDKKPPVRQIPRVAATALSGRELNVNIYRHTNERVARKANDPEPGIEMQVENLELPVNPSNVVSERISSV

[2] = biological target: 5-hydroxytryptamine receptor 2A (Rattus norvegicus, UniProt P14842)
Sequence of 5-hydroxytryptamine receptor 2A (P14842 whole entry): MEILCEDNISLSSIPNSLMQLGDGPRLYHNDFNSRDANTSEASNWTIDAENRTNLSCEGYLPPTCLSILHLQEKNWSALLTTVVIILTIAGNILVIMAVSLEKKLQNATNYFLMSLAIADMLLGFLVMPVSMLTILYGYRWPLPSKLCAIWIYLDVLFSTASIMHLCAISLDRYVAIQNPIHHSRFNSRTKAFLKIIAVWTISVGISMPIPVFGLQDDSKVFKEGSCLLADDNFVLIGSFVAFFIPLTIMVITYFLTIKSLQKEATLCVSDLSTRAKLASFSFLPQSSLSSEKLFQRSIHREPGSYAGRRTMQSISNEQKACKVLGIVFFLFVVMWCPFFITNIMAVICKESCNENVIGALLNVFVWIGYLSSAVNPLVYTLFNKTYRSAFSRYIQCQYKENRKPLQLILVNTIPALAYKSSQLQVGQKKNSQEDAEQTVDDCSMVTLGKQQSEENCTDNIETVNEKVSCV

SMILES | Ki [1] [nM] | Ki [2] [nM]
CNCCCN1c2ccccc2CCc2ccccc21 [Desmethylimipramine] | 244 | 
CN(C)C/C=C(/c1ccc(Br)cc1)c1cccnc1 [cis-[3-(4-Bromo-phenyl)-3-pyridin-3-yl-allyl]-dimethyl-amine;HCl] | 1000 | 
C#CCN(C)CCCOc1ccc(Cl)cc1Cl [US8633208, Clorgyline] | 1000 | 
CNCCC=C1c2ccccc2CCc2ccccc21 [NORTRIPTYLINE] | 8.5 | 
CN(C)CCCN1c2ccccc2CCc2ccccc21 | 94 | 
CN(C)CCCC1(c2ccc(F)cc2)OCc2cc(C#N)ccc21 (stereo unspecified) [CITALOPRAM HYDROBROMIDE] | 269 | 
NCC[C@H](Oc1ccc(C(F)(F)F)cc1)c1ccccc1 [NORFLUOXETINE] | 157 | 
O=c1n(CCCN2CCN(c3cccc(Cl)c3)CC2)nc2ccccn12 [2-{3-[4-(3-chlorophenyl)piperazin-1-yl]propyl}[1,2,4]triazolo[4,3-a]pyridin-3(2H)-one] | 193 | 
CN(C)CCC=C1c2ccccc2CCc2ccccc21 | 4.3 | 4.3
CN(C)CCCn1c2c(c3ccccc31)CCCCCC2 [CAS_5560-72-5] | 206 | 
